Source: patent US12570657B2, “Mesylate salts of heterocyclic cytokinins, compositions containing these derivatives and use thereof” (UNIVERZITA PALACKEHO V OLOMOUCI, priority 2020, dated 2026)
Where two headings read alike, the source gives them in different places.

Experiments:
[1] = tested on: winter wheat leaf segments; assay: Senescence bioassay: retention of chlorophyll in excised winter wheat leaf tips; type: in vivo, Triticum aestivum cv. Hereward; conditions: for activity (%) [10^−4 mol · l^−1 BAP = 100%]: chlorophyll retention at concentration with highest activity, 10^−4 M BAP = 100%
Procedure: Seeds of winter wheat, Triticum aestivum cv. Hereward, were washed under running water for 24 hours and then sown on vermiculite soaked with Knop's solution. They were placed in a growth chamber at 25° C. with a 16/8 h light/dark period at 50 μmol·m^−2·s^−1. After 7 days, the first leaf was fully developed and the second leaf had started to grow. A tip section of the first leaf, approximately 35 mm long, was removed from 5 seedlings and trimmed slightly to a combined weight of 100 mg. The basal ends of the five leaf tips were placed in the wells of a microtiter polystyrene plate containing 150 μl of each tested compound solution. The entire plate was inserted into a plastic box lined with paper tissues soaked in distilled water to prevent leaf sections from drying out. After 96 h incubation in the dark at 25° C., the leaves were removed and chlorophyll extracted by heating at 80° C. for 10 min in 5 ml of 80% ethanol (v/v). The sample volume was then restored to 5 ml by the addition of 80% ethanol (v/v). The absorbance of the extract was recorded at 665 nm. In addition, chlorophyll extracts from fresh leaves and leaf tips incubated in deionised water were measured. […] Relative activity of the compound at this concentration was calculated (Tab. 3). The activity obtained for 10^−4 M 6-benzylaminopurine (BAP) was postulated as 100%. The values shown are means of five replicates and the whole experiment was repeated twice. The tested cytokinin bases were dissolved in dimethylsulfoxide (DMSO) and the solution brought up to 10^−3 M with distilled water. Cytokinin mesylate salts which are more water-soluble (BAP mesylate, meta-topolin mesylate and kinetin mesylate) could be directly dissolved to form a 10^−3 M solution in distilled water.

[2] = Aqueous solubility: concentration of saturated solution by HPLC; type: physicochemical; conditions: thermodynamic from solid; saturated solution in water, cytokinin mesylate; read-out: c of CK mesylate
Procedure: Aqueous solubility was measured using the following protocol. Supersaturated solution of meta-topolin mesylate salt was prepared. The solutions were filtered off from visible undissolved particles of the salt to obtain homogenic saturated solution. Saturated solution was diluted 1:10 000 and measured using HPLC Alliance Waters 2690 with C18 Symmetry column with the diameter 2.1 mm and 150 mm length with a porosity of 5 μm. The sample was dissolved in the mobile phase (MeOH: HCOONH4-1:9). The sample was washed with a methanol gradient (10-90%, 35 min) at pH 4 and a flow rate of 0.3 ml/min. The absorbances of the components were detected in the UV region at 210-400 nm. The peak area of meta-topolin mesylate salt was 595 027. The standard was measured as shown in the Table 9 below, Obtained peak area was compared to area peaks measured at certain concentration and the final concentration of saturated solution was determined
Solubility of other cytokinin (CK) mesylates was also determined by this method and the concentrations of saturated solutions are given below in Table 10: […]

[3] = tested on: cytokinin-dependent tobacco callus; assay: Tobacco callus biotest (stimulation of plant cell division); type: cell-based, Nicotiana tabacum L. cv. Wisconsin 38; conditions: for activity (%) [10^−5 mol · l^−1 BAP = 100%]: callus growth at concentration with highest activity, 10^−5 M BAP = 100%
Procedure: Stimulation effect of the cytokinin mesylates was tested in tobacco callus biotest using cytokinin dependent tobacco callus. Cytokinin-dependent tobacco callus Nicotiana tabacum L. cv. […] Subcultivation was carried out every three weeks. Fourteen days before the bioassay, the callus tissue was transferred to the media without BAP. Biological activity was determined from the increase in fresh callus weight after four weeks of cultivation. Five replicates were prepared for each cytokinin concentration and the entire test was repeated twice. […] Relative activity of the compound at this concentration was calculated (Tab. 15). The activity obtained for 10^−5 M 6-benzylaminopurine (BAP) was postulated as 100%. The cytokinin bases to be tested were dissolved in dimethylsulfoxide (DMSO) and the solution brought up to 10^−3 M with distilled water. The mesylate salts were dissolved directly in distilled water.

rose explants = assay: In vitro and post vitro multiplication and rooting of rose; type: in vivo, Rosa multiflora
Procedure: The aim of this experiment was to test whether the new compounds are of practical use in tissue culture practice. The multiplication rate was investigated and the post vitro effects on rooting were examined Rosa hybrida (pot rose cultivar) was cultured in 350 ml vessels with a screw on polycarbonate lid. Each culture vessel contained 100 ml autoclaved medium (120° C., 20 min). The cultures were maintained at 23±2° C. under a 16 h photoperiod at 40 μM·m^−2 s^−1 PAR. The basal medium (BMR) contained Murashige and Skoog (1962) macroelements, microelements and vitamins, 95 μM NaFeEDTA, 555 μM myo-inositol, 111 mM sucrose, 1.332 mM glycine, 684 μM L-glutamine and 7 g/l agar. This medium was supplemented with 10 μM BAP, mT, or 3MeOBAP, or the corresponding mesylate salts. The control medium didn't contain any cytokinin After a culture period of 8 weeks, the number of induced shoots per explant was determined, as well as root number/explant and total root length/explant. The roots were removed and the explants (shoot clusters) were planted in unfertilised peat. After four weeks of acclimatising in a fog unit, root number and root length was determined. As expected, a cytokinin free medium yielded almost no new shoots. The original shoot explant grew out as a good quality single shoot that rooted very well. […] Explants growing on cytokininin mesylates were characterized by a high multiplication index (a large number of new shoots) and were more rooted in comparison with free bases. The use of cytokinin mesylates led to an increase in all monitored parameters in plant culture compared to free cytokinin bases.

[4] = tested on: retinal epitelium cells ARPE-19; assay: Cytotoxicity for non-cancer cells, resazurine reduction assay, ARPE-19
Procedure: (§1) It is used for viability testing of both bacterial and eukaryotic cells. […] Cultivation medium was DMEM with 10% FBS. Before the experiment, the cells were subcultured for 2 weeks. For the cytotoxicity evaluation, the cells were trypsinized and pipetted into 96 well plates (5000 cells per well in 80 microliters). After 24 hours, 5× concentrated solutions of the tested compounds in the medium were added. […] IC50 values were calculated from dose response curves using drc library for R programming environment.

keratinocytes HaCaT = assay: Cytotoxicity for non-cancer cells, resazurine reduction assay, HaCaT
Procedure: as §1

[5] = tested on: K562 (chronic myeloid leukemia); assay: In vitro cytotoxicity, Calcein AM assay, K-562; type: cell-based; conditions: 3-day Calcein-AM assay
Text: (§2) Because toxic compounds adversely affect cell metabolic processes, many standard cytotoxicity assays are based on measuring the rate of metabolism of various artificial substrates. The resulting product is then quantified, for example, by spectrometry. Assays can be easily modified for use in 96-well plates, A microtiter assay based on the quantification of Calcein AM metabolism was used to evaluate the cytotoxicity of cytokinins, for example meta-topolin, ortho-topolin, kinetin, BAP or its mesylate salts, but also a number of other cytokinin mesylate derivatives according to the invention. The test is widely used in drug screening programs and in chemosensitivity testing. In living cells, Calcein AM is enzymatically hydrolyzed and the accumulation of the resulting calcein is manifested by green fluorescence. […] These cells were maintained in standard DMEM or RPMI medium (Sigma, MO, USA) supplemented with heat-inactivated fetal bovine serum (10%) with 2 mM L-glutamine and penicillin-streptomycin (1%) under standard cell culture conditions (37° C., 5% CO2 in a humid environment) and subcultured two or three times a week using a standard trypsinization procedure. Approximately 10,000 cells in 80 μl of medium were seeded in a 96-well microtiter plate. After 12 hours of incubation, the compounds to be tested were added in 20 μl aliquots. Control cultures were treated with DMSO alone. […] After 72 hours of incubation, Calcein AM solution (Molecular Probes) was added to a final concentration of 1 μg/ml and the cells were incubated for another hour.
(§3) Cytoxicity of compounds was tested on panel of cell lines of different histogenetic and species origin.

[6] = tested on: CEM (T-lymphoblastic leukemia); assay: In vitro cytotoxicity, Calcein AM assay, CEM; type: cell-based; conditions: 3-day Calcein-AM assay
Text: as §2, §3

[7] = tested on: MCF-7 (breast adenocarcinoma); assay: In vitro cytotoxicity, Calcein AM assay, MCF7; type: cell-based; conditions: 3-day Calcein-AM assay
Text: as §2, §3

skin fibroblasts BJ = assay: Cytotoxicity for non-cancer cells, resazurine reduction assay, BJ
Procedure: as §1

[8] = tested on: HL-60 (promyelocytic, leukemia); assay: In vitro cytotoxicity, Calcein AM assay, HL60; type: cell-based; conditions: 3-day Calcein-AM assay
Text: as §2, §3

[9] = Ex vitro, after four weeks of acclimatising in peat
[10] = In vitro, 10 μM cytokinin, 8 weeks
[11] = resazurin, 72 hour treatment, ARPE-19
[12] = resazurin, 72 hour treatment, HaCaT
[13] = resazurin, 72 hour treatment, BJ

COc1cccc(CNc2ncnc3nc[nH]c23)c1.CS(=O)(=O)O [3MeOBAP mesylate, 6-(3-methoxybenzylamino)purine mesylate]
activity (%) [10^−4 mol · l^−1 BAP = 100%] ([1]; listed as 3-MeoBAP mesylate, mesylate): 125% | activity (%) [10^−4 mol · l^−1 BAP = 100%] ([1]; mesylate): 184% | solubility thermodynamic [2]: 47.5 mM | activity (%) [10^−5 mol · l^−1 BAP = 100%] [3]: 83% | Number of roots per plant (rose explants; [9]): 1.9 | Overall length of plant (cm) (rose explants; [9]): 4.5 cm | Number of new shoots per explant (rose explants; [10]): 4.5 | Number of roots per explant (rose explants; [10]): 0.0 | Overall length of explant (cm) (rose explants; [10]): 0.0 cm | number of flowers per explant (rose explants; [10]): 0.02

CS(=O)(=O)O.c1coc(CNc2ncnc3nc[nH]c23)c1 [Kinetin mesylate, 6-furfurylaminopurine mesylate]
activity (%) [10^−4 mol · l^−1 BAP = 100%] [1]: 110.9% | Cytotoxicity for Fibroblasts (GI20) ARPE-19 [4, 11]: >100 μM | Cytotoxicity for Fibroblasts (GI20) HaCaT (keratinocytes HaCaT; [12]): >100 µM | solubility thermodynamic [2]: 92.6 mM | IC50 ([5]; Homo sapiens, K562, 72 h): > 167 µM | IC50 ([6]; 72 h): > 167 µM | IC50 ([7]; Homo sapiens, MCF7, 72 h): > 167 µM | Cytotoxicity for Fibroblasts (GI20) BJ (skin fibroblasts BJ; human, 72 h): >100 µM

CC(C)=CCNc1ncnc2[nH]cnc12.CS(=O)(=O)O [iP mesylate, N-3-(Methylbut-2-En-1-Yl)-9H-Purin-6-Amin Methanesulphonate]
activity (%) [10^−4 mol · l^−1 BAP = 100%] [1]: 95% | concentration with highest activity ([1]; chlorophyll retention, excised wheat leaf tips, 96 h dark): 10^−4 mol · l^−1 | Cytotoxicity for Fibroblasts (GI20) ARPE-19 [4]: >100 μM | Cytotoxicity for Fibroblasts (GI20) HaCaT (keratinocytes HaCaT): >100 µM | IC50 [5]: 162 µM | IC50 [6]: 128 µM | activity (%) [10^−5 mol · l^−1 BAP = 100%] [3]: 95% | concentration with highest activity ([3]; tobacco callus fresh weight increase, four weeks): 10^−6 mol · l^−1 | IC50 [7]: > 167 µM | Cytotoxicity for Fibroblasts (GI20) BJ (skin fibroblasts BJ): 149.3 µM

CS(=O)(=O)O.Oc1ccccc1CNc1ncnc2nc[nH]c12 [oT mesylate, 6-(2-hydroxybenzylamino)purine mesylate]
activity (%) [10^−4 mol · l^−1 BAP = 100%] [1]: 69% | Cytotoxicity for Fibroblasts (GI20) ARPE-19 [4, 11]: >100 μM | Cytotoxicity for Fibroblasts (GI20) HaCaT (keratinocytes HaCaT; [12]): >100 µM | solubility thermodynamic [2]: 82.3 mM | IC50 ([6]; mesylate): 89.4 µM | activity (%) [10^−5 mol · l^−1 BAP = 100%] [3]: 87% | Cytotoxicity for Fibroblasts (GI20) BJ (skin fibroblasts BJ; human, 72 h): >100 µM

C/C(=C\CNc1ncnc2[nH]cnc12)CO.CS(=O)(=O)O [tZ mesylate, (E)-4-(9H-Purin-6-Ylamino)-2-Methybut-2-En-1-ol)Methanesulphonate]
activity (%) [10^−4 mol · l^−1 BAP = 100%] [1]: 114% | Cytotoxicity for Fibroblasts (GI20) ARPE-19 [4, 11]: >100 μM | Cytotoxicity for Fibroblasts (GI20) HaCaT (keratinocytes HaCaT; [12]): >100 µM | IC50 [6]: > 167 µM | activity (%) [10^−5 mol · l^−1 BAP = 100%] [3]: 111% | IC50 [7]: > 167 µM | IC50 [8]: > 167 µM | Cytotoxicity for Fibroblasts (GI20) BJ (skin fibroblasts BJ; [13]): >100 µM

C/C(=C\CNc1ncnc2nc[nH]c12)CO [trans-zeatin (tZ), trans-zeatin]
activity (%) [10^−4 mol · l^−1 BAP = 100%] [1]: 110% | Cytotoxicity for Fibroblasts (GI20) ARPE-19 [4, 11]: >100 μM | Cytotoxicity for Fibroblasts (GI20) HaCaT (keratinocytes HaCaT; [12]): >100 µM | IC50 [6]: > 167 µM | activity (%) [10^−5 mol · l^−1 BAP = 100%] [3]: 109% | IC50 [7]: > 167 µM | IC50 [8]: > 167 µM | Cytotoxicity for Fibroblasts (GI20) BJ (skin fibroblasts BJ; [13]): >100 µM
